# Results published in PMC7447632, “Highly functionalized β-lactams and 2-ketopiperazines as TRPM8 antagonists with antiallodynic activity” (Scientific Reports, 2020).
# Tests used:
# Assay type in all cases: cell-based
# hTRPV1 channels = target: T1, hTRPV1 channels (Homo sapiens, UniProt Q8NER1); assay: Ca2+ microfluorometry in HEK cells expressing hTRPV1 (capsaicin); conditions: 1 µM capsaicin; for TRPV1 Blockade (%) 5 µM: 5 µM compound; for TRPV1 Blockade (%) 50 µM: 50 µM compound
# T1 construct: expressed in transfected cells; host or cells: HEK (stably transfected)
# Experimental: β-Lactam and 2-ketopiperazine derivatives were also assayed for their activity in cell expressing hTRPV1 channels. No significant antagonist activity was measured for any derivatives within both chemotypes (Supplementary Tables S1, S2, and Fig. S3), indicating their selectivity for TRPM8 channels.
# Human embryonic kidney cell line (HEK) stably transfected with rTRPM8 or h-TRPV1 were used as previously described. Briefly, cells were seeded in 96-well plates at a cell density of 30,000 cells 2 days before treatment. Buffer used was HBBS (in mM): 138 NaCl, 5.33 KCl, 1.26 CaCl2, 0.5 MgCl-6H2O, 0.4 MgSO4-7H2O, 4 NaHCO3 0.44 KH2PO4, 0.3 Na2HPO4, pH 7.4. The day of treatment the medium was replaced with 100 µL of the dye loading solution Fluo-4 NW supplemented with probenecid 2.5 mM. After incubation, plates were transferred to a fluorescence plate reader (Polastar BMG). In the experimental protocol, the baseline fluorescence was recorded ([…]) for 3 cycles. After, vehicle, compound at different concentrations and the corresponding antagonist, 10 µM AMTB for TRPM8 or 10 µM Ruthenium Red for TRPV1 were added to the well. Fluorescence intensity was recorded during 7 cycles more. Finally, the agonist 100 µM menthol for TRPM8 or 1 µM capsaicin for TRPV1 was added and fluorescence intensity was recorded during 10 cycles more.
# Table S1. Activity at hTRPV1 of β–lactams derived from phenylalaninol conjugates
# Compd. Isomer Isomer TRPV1 Blockade (%)
# Table S2. Activity at hTRPV1 of 2-ketopiperazines derived from phenylalaninol
# 60 tumor cell screen = 60 tumor cell screen at the National Cancer Institute; conditions: 10 µM concentration
# Description: A number of recent experimental evidences position TRPM channels as important players in cancer growth and progression. Among these channels, the aberrant expression of the TRPM8 subtype has been described in different human malignant tumors, including those of prostate, pancreas, breast, colon, and skin, among others. More importantly, sometimes the TRPM8 overexpression was associated to poor prognosis of cancer patients. […] Based on these precedents, in this work we first aimed at evaluating the antitumor activity of enantiopure compounds 24a and 29a. Initially, we assessed the growth inhibition percentage by a 10 µM concentration of these compounds on a 60 tumor cell screen at the National Cancer Institute (USA).
# rTRPM8 = target: T2, rTRPM8 (Rattus norvegicus, UniProt Q8R455); assay: Patch-clamp electrophysiology, whole cell, HEK293 cells expressing rTRPM8; conditions: for IC50: Patch-clamp, holding potential -60 mV, read-out: IC50 TRPM8 current blockade; for Hill coefficient n: fit of concentration-response curve, -60 mV
# T2 construct: expressed in transfected cells; host or cells: HEK293 (stably transfected)
# Description: The TRPM8 antagonist activity of the enantiopure β-lactams 24a and 29a was further confirmed electrophysiologically by Patch-clamp experiments, using the whole cell configuration in HEK293 cells expressing TRPM8 channels.
# The dose–response curve for both compounds was obtained at a holding potential of -60 mV (Supplementary Fig. S4).
# Figure 2 Compounds 24a and 29a block TRPM8-mediated responses evoked by menthol in rTRPM8-expressing HEK293 cells. (A, C). I–V curves obtained in HEK293 cells expressing TRPM8 and exposed to vehicle solution (Vehicle; black trace; A,C), 100 µM menthol (red trace; A,C), 100 µM menthol + 10 µM 24a (blue trace; A) or to 100 µM menthol + 10 µM compound 29a (blue trace; C) (B,D), Concentration − response curves for TRPM8 current blockade by compound 24a (B) or compound 29a (D) at a holding voltage of -60 mV. Peak current data were expressed as pA/pF (to facilitate comparison among cells of different size) and expressed as a function of antagonist concentrations. The solid lines represent fits of the experimental data to the following binding isotherm: y = max/(1 + x/EC50)n, where x is the drug concentration and n the Hill coefficient. The fitted values for n were 0.97 ± 0.05 or 0.98 ± 0.6 for compound 24a or 29a, respectively. Each point is the mean ± SD of 8 (for compound 24a) or 9 (for compound 29a) determinations, each obtained in different cells. TEXT PRINTED IN THE PICTURE: (B) 24a: IC50=1,4±1,1 μM | (D) 29a: IC50=0,8±1,2 μM
# Electrophysiological recording was carried out 1–3 days after cells seeded. Membrane currents and voltages were recorded by patch clamp using the whole-cell configuration. For whole-cell recordings of HEK-rTRPM8 cells, pipette solution contained (in mM) 150 NaCl, 5 EGTA, 3 MgCl2 and 10 HEPES, adjusted to pH 7.2 with NaOH, and bath solution contained (in mM) 150 NaCl, 6 CsCl, 1.5 CaCl2, 1 MgCl2, 10 D-glucose and 10 HEPES, adjusted to pH 7.4 with NaOH. Data were sampled at 10 kHz (EPC10 amplifier with PatchMaster 2.53 software, HEKA Electronics, Lambrecht, Germany) and low-pass filtered at 3 kHz for analysis (PatchMaster 2.53 and GraphPad Prism 5, Graphpad Software, USA). The series resistance was < 10 MΩ and to minimize voltage errors was compensated to 60–80%. All measurements were performed at 24–25 °C. The TRPM8 response was quantified as the ratio P2/P1, being P2 the second menthol pulse in the presence of the vehicle or antagonist tested, and P1 refers to the first menthol pulse. This paradigm considers the extend of receptor desensitization as the P2/P1 obtained with the vehicle. Thus, the estimated IC50 values are corrected from receptor desensitization.
# T2 sequence (Q8R455 whole entry): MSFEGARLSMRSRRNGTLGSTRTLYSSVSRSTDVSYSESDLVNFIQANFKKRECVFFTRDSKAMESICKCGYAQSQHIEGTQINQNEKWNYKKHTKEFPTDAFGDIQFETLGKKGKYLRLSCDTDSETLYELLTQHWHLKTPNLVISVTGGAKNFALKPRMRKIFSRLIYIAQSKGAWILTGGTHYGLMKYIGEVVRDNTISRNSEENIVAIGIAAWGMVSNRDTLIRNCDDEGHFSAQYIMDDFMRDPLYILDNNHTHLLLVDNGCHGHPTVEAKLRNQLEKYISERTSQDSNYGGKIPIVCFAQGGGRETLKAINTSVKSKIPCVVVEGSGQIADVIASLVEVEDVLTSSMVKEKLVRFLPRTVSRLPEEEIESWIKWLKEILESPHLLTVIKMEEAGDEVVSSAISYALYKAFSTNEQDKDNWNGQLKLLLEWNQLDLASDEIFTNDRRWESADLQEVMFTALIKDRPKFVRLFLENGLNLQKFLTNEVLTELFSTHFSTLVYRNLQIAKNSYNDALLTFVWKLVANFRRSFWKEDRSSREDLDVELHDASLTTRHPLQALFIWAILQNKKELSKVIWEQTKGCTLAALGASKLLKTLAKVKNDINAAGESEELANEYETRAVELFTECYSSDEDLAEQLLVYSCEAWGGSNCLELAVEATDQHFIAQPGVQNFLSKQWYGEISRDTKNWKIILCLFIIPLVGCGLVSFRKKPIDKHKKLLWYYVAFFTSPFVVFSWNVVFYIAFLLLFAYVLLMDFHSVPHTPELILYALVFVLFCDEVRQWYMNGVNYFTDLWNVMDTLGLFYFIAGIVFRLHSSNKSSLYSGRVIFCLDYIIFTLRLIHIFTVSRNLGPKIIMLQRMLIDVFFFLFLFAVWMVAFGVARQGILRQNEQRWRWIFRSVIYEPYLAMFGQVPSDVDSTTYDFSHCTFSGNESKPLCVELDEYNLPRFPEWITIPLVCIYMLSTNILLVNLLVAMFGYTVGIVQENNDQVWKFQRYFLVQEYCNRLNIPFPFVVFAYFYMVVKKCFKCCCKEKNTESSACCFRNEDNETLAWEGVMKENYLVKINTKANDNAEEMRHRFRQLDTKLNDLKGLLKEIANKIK
# T1 sequence (Q8NER1 whole entry): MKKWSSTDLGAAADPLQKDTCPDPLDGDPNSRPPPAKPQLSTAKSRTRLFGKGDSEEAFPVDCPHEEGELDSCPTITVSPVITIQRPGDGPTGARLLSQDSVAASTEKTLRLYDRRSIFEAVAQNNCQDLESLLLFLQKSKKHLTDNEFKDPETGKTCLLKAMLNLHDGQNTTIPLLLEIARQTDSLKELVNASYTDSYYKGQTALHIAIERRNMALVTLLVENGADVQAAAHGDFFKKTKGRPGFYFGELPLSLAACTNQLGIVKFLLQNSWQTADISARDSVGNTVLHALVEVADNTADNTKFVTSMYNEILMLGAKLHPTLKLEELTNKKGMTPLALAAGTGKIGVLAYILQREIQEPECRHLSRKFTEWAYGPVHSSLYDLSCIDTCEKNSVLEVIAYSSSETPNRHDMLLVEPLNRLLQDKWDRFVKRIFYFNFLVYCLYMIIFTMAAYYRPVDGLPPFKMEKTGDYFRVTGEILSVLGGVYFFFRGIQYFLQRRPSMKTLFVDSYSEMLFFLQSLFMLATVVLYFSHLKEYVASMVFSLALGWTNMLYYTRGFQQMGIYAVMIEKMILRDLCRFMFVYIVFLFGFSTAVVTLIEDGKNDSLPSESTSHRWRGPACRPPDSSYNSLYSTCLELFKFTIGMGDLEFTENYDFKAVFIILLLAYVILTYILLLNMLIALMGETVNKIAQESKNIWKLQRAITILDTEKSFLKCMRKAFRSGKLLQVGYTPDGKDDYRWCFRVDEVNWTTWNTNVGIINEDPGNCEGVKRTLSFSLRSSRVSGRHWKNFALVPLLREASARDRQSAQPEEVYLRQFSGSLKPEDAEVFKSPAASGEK
TRPV1 Blockade (%) 5 µM (hTRPV1 channels),TRPV1 Blockade (%) 50 µM (hTRPV1 channels),IC50 (rTRPM8; 100 µM menthol),Hill coefficient n (rTRPM8),SMILES,Growth inhibition in 60 tumor cell screen (60 tumor cell screen),"Effect on menthol-mediated TRPM8 activity (I-V curve) (rTRPM8; 10 µM compound, 100 µM menthol, +120 mV)"
9.7±1.1%,11.8±3.2%,1400 nM,0.97 ± 0.05,"C[C@@H]1C(=O)N(C[C@H](Cc2ccccc2)NC(=O)OCc2ccccc2)[C@]1(Cc1ccccc1)C(=O)OCc1ccccc1 [Compound 24a, 4S-Benzyl-4-benzyloxycarbonyl-3S-methyl-1-[(2′S-benzyloxycarbonylamino-3′-phenyl)prop-1′-yl]-2-oxoazetidine]","non-selective, modest cytotoxic effects",important reduction on the menthol-mediated TRPM8 activity
8.2±2.1%,16.2±4.7%,800 nM,0.98 ± 0.6,"C[C@@H]1C(=O)N(C[C@@H](Cc2ccccc2)NC(=O)OCc2ccccc2)[C@]1(Cc1ccccc1)C(=O)OCc1ccccc1 [Compound 29a, 4S-Benzyl-4-benzyloxycarbonyl-3S-methyl-1-[(2′R-benzyloxycarbonylamino-3′-phenyl)prop-1′-yl]-2-oxoazetidine]","non-selective, modest cytotoxic effects",–
